Data reported in ChEMBL document CHEMBL1201862, “PubChem BioAssay data set” (2004).
Calls of active or inactive are those of the source. No stated cut-off is given here; in the data, actives have a measured IC50 and inactives only a lower limit.

Target: Envelope glycoprotein gp160 (Human immunodeficiency virus 1, UniProt Q6QLK5)
Assay: inhibitors of HIV fusion peptide binding, primary screen, biochemical, uHTS, fluorescence dequenching (AID 1986)

Sequence of Envelope glycoprotein gp160 (Q6QLK5 whole entry, the tested form may be a part): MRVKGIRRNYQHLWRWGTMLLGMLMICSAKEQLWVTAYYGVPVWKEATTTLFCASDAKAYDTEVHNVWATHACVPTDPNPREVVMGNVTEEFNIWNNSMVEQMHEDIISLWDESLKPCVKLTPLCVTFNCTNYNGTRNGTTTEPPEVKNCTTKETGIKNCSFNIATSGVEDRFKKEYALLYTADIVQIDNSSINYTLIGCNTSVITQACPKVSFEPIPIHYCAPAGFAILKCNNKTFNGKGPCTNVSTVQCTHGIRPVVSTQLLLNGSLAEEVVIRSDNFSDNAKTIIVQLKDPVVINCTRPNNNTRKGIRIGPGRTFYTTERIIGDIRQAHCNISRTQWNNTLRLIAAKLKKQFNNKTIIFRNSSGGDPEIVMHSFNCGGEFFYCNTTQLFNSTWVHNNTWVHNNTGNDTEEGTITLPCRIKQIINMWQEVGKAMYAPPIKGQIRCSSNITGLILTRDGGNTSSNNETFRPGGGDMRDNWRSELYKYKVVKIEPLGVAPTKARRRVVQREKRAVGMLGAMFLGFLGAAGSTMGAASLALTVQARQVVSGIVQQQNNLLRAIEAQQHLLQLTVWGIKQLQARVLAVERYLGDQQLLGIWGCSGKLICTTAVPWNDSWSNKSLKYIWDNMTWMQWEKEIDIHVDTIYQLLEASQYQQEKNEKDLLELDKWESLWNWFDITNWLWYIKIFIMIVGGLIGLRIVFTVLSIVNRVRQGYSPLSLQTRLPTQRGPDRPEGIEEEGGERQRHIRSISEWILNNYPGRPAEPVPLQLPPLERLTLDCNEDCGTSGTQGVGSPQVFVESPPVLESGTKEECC

**Q.** For O=C(O)CSc1cc(C(=O)c2ccccc2O)cn2c(=O)c3c4c(sc3nc12)CCCC4, which IC50 is on record?
**A.** 20.7 µM (active)
